# From ChEMBL document CHEMBL6120941, “Discovery of SIRT1-Activating Hydrogen Sulfide Donating Derivatives for Efficient Resistant of Myocardial Ischemic Injury” (J Med Chem, 2024)
# Calls of active or inactive are those of the source. No cut-off for these calls is given here.
# Legend:
# H9c2 [1] = assay: Cardioprotective activity against CoCl2-induced cellular hypoxia injury in rat H9c2 cells assessed as cell viability at 0.625 uM incubated for 24 hrs by CCK-8 assay (reference value: 51.80 +/- 2.58 %); type: functional; details: read-out: Activity
# H9c2 [2] = assay: Cardioprotective activity against CoCl2-induced cellular hypoxia injury in rat H9c2 cells assessed as cell viability at 2.5 uM incubated for 24 hrs by CCK-8 assay (reference value: 51.80 +/- 2.58 %); type: functional; details: read-out: Activity
# H9c2 [3] = assay: Cardioprotective activity against CoCl2-induced cellular hypoxia injury in rat H9c2 cells assessed as cell viability at 5 uM incubated for 24 hrs by CCK-8 assay (reference value: 51.80 +/- 2.58 %); type: functional; details: read-out: Activity
# H9c2 [4] = assay: Cardioprotective activity against CoCl2-induced cellular hypoxia injury in rat H9c2 cells assessed as increase in cell viability at 30 uM incubated for 24 hrs by CCK-8 assay; type: functional, cell-based
# H9c2 [5] = assay: Cardioprotective activity against CoCl2-induced cellular hypoxia injury in rat H9c2 cells assessed as cell viability at 1.25 uM incubated for 24 hrs by CCK-8 assay (reference value: 51.80 +/- 2.58 %); type: functional; details: read-out: Activity
# H9c2 [6] = assay: Cardioprotective activity against CoCl2-induced cellular hypoxia injury in rat H9c2 cells assessed as cell viability at 10 uM incubated for 24 hrs by CCK-8 assay (reference value: 51.80 +/- 2.58 %); type: functional; details: read-out: Activity
Structure (SMILES),viability at 0.625 µM (H9c2 [1]),viability at 2.5 µM (H9c2 [2]),viability at 5 µM (H9c2 [3]),Activity (H9c2 [4]),viability at 1.25 µM (H9c2 [5]),viability at 10 µM (H9c2 [6])
CC(C)=CCC[C@](C)(O)[C@H]1CC[C@]2(C)[C@@H]1[C@H](O)C[C@@H]1[C@@]3(C)CC[C@H](O)C(C)(C)[C@@H]3[C@@H](O)C[C@]12C,66%,67.3%,71.4%,inactive,66.8%,71.6%
O=C(O)c1ccc(N=C=S)cc1,51.1%,59.3%,59.5%,inactive,53.7%,63.5%
C=CCSSCCC(=O)O,51.7%,68.4%,71%,inactive,57.5%,80.3%
CC(C)(O)[C@@H]1CC[C@@](C)([C@H]2CC[C@]3(C)[C@@H]2[C@H](O)C[C@@H]2[C@@]4(C)CC[C@H](OC(=O)c5ccc(N=C=S)cc5)C(C)(C)[C@@H]4[C@@H](O)C[C@]23C)O1,56.9%,58.8%,61.4%,inactive,55.5%,63.1%
CC(C)=CCC[C@](C)(O)[C@H]1CC[C@]2(C)[C@@H]1[C@H](O)C[C@@H]1[C@@]3(C)CC[C@H](OC(=O)c4ccc(N=C=S)cc4)C(C)(C)[C@@H]3CC[C@]12C,54.7%,60.7%,67.5%,inactive,61%,61.5%
O=C(Nc1ccccc1-c1cn2c(CN3CCNCC3)csc2n1)c1cnc2ccccc2n1,71.7%,80.6%,83.3%,–,73.3%,88.4%
CC(C)(O)[C@H]1CC[C@@](C)([C@H]2CC[C@]3(C)[C@@H]2[C@H](O)C[C@@H]2[C@@]4(C)CC[C@H](OC(=O)c5ccc(N=C=S)cc5)C(C)(C)[C@@H]4[C@@H](O)C[C@]23C)O1,52.5%,57.1%,58.6%,inactive,59.6%,58.5%
CC(C)(O)[C@@H]1CC[C@@](C)([C@H]2CC[C@]3(C)[C@@H]2[C@H](O)C[C@@H]2[C@@]4(C)CC[C@H](O)C(C)(C)[C@@H]4[C@@H](O)C[C@]23C)O1 [PROTOPANAXATRIOL OXIDE II],52%,56.7%,69.6%,inactive,54%,73.4%
CC(C)(O)[C@H]1CC[C@@](C)([C@H]2CC[C@]3(C)[C@@H]2[C@H](O)C[C@@H]2[C@@]4(C)CC[C@H](OC(=O)CCC(=O)Oc5ccc(-c6cc(=S)ss6)cc5)C(C)(C)[C@@H]4CC[C@]23C)O1,65.1%,67.5%,69.5%,inactive,66.8%,72.5%
CC(C)(O)[C@H]1CC[C@@](C)([C@H]2CC[C@]3(C)[C@@H]2[C@H](O)C[C@@H]2[C@@]4(C)CC[C@H](O)C(C)(C)[C@@H]4CC[C@]23C)O1,68.7%,65.4%,66.9%,inactive,66.4%,75.5%
CC(C)(O)[C@@H]1CC[C@@](C)([C@H]2CC[C@]3(C)[C@@H]2[C@H](O)C[C@@H]2[C@@]4(C)CC[C@H](OC(=O)c5ccc(N=C=S)cc5)C(C)(C)[C@@H]4CC[C@]23C)O1,62.2%,67.1%,70%,inactive,62.2%,77.1%
O=C(O)CCC(=O)Oc1ccc(-c2nc(=O)ss2)cc1,52.4%,55.9%,57%,inactive,55.1%,57.2%
CC(C)(O)[C@H]1CC[C@@](C)([C@H]2CC[C@]3(C)[C@@H]2[C@H](O)C[C@@H]2[C@@]4(C)CC[C@H](OC(=O)CCC(=O)Oc5ccc(-c6cc(=S)ss6)cc5)C(C)(C)[C@@H]4[C@@H](O)C[C@]23C)O1,67.3%,68.4%,68.1%,inactive,66.2%,68.3%
